According to publication PMC9841530 (Journal of Medicinal Chemistry, 2022):
≈ marks a conversion by molar mass, not a printed value. Where two headings read alike, the source gives them in different places. One block for each molecule: values may come before it.

What was measured:
[1] = Thermodynamic solubility in PBS; assay type: physicochemical; settings: for Solubility: PBS (pH 7.5), concentration after 90 min of vortexing, ND: not detected; for fold more soluble than Cact-3: PBS solubility vs Cact-3
human wild-type CFTR = human wild-type CFTR (Homo sapiens, UniProt P13569); assay: YFP fluorescence quenching assay of CFTR channel activity; assay type: cell-based; settings: for fold less potent than Cact-3: YFP EC50 vs Cact-3
[2] = tested on: normal female C57BL/6J mice; assay: Tear volume in normal mice; assay type: in vivo, mouse; settings: for effect on tear volume: 16d up to 1 mM, Cact-3 up to 72 μM
IL-1β mRNA = settings: mouse, in vivo
[3] = assay type: in vivo, New Zealand White Rabbit; settings: rabbit; for AUC0-24 / AUC0-inf / AUC0-last: 0.1 mg/eye
[4] = tested on: volume-regulated anion channel (VRAC); assay: VRAC activity by YFP fluorescence quenching assay; assay type: cell-based; settings: 16d 30 μM, VI-116 10 μM; hypotonic solution 5 min
human ANO1 = target: T1, human ANO1 (Homo sapiens, UniProt Q5XXA6); assay: ANO1 apical membrane current in FRT cells expressing human ANO1; assay type: cell-based; settings: 16d 30 μM, Ani9 10 μM; ANO1 activated by 100 μM ATP
T1 sequence (Q5XXA6 1-986): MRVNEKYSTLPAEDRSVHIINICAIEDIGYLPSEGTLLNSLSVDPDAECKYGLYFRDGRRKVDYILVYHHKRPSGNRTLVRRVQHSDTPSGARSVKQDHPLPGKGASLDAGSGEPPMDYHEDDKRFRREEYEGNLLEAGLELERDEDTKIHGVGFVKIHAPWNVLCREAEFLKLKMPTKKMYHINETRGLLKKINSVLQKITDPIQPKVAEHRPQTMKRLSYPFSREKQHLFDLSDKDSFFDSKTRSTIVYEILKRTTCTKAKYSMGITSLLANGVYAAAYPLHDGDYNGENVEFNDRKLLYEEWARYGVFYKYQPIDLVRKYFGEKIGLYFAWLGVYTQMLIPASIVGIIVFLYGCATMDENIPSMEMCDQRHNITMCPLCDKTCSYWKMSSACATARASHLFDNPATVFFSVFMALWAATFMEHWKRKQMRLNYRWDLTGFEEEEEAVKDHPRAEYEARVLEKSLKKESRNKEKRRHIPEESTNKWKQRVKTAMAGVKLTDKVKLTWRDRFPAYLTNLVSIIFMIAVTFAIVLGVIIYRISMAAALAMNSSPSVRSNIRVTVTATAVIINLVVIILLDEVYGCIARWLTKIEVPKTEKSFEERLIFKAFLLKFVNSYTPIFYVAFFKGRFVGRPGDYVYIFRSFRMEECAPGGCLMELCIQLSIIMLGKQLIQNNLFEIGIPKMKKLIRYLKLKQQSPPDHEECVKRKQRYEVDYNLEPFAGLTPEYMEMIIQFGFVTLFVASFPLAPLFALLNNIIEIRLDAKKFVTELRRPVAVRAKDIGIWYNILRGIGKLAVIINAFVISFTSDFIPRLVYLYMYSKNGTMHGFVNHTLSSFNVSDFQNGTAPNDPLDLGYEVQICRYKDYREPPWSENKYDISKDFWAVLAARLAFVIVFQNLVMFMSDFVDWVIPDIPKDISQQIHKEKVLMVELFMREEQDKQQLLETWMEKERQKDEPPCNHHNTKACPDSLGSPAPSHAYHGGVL

[5] = Maximum solubility for eye drop administration; assay type: physicochemical
MMP-2 mRNA = settings: mouse, in vivo
[6] = tested on: corneal epithelial (CorE) cells; assay: Corneal epithelial cytotoxicity test; assay type: cell-based, human; settings: 30 μM, 48 h, MTS assay
IL-17 mRNA = settings: mouse, in vivo
[7] = tested on: conjunctival epithelial (ConjE) cells; assay: Conjunctival epithelial cytotoxicity test; assay type: cell-based, human; settings: 30 μM, 48 h, MTS assay
intracellular cAMP = assay: Intracellular cAMP measurement in CHO-K1 cells; assay type: cell-based; settings: 30 μM, 10 min, IBMX 100 μM, compared to the control
TNF-α mRNA = settings: mouse, in vivo
[8] = tested on: scopolamine-induced dry eye mouse model; assay: Corneal erosion grading in scopolamine-induced dry eye mouse model; assay type: in vivo; settings: DED mice; 16d 2060 μM three times a day for 10 days; compared to control group
[9] = tested on: scopolamine-induced dry eye mouse model; assay: Tear volume in scopolamine-induced dry eye mouse model; assay type: in vivo; settings: DED mice; 5 μL eye drops three times a day for 10 days; 16d 2060 μM, 0.3% diquafosol sodium
human CFTR [10] = target: T2, human CFTR (Homo sapiens, UniProt P13569); assay: Apical membrane current in FRT cells expressing human CFTR; assay type: cell-based; settings: 10 μM CFTRinh-172
human CFTR [11] = target: T2, human CFTR; settings: 20 μM CFTRinh-172; CHO-K1 cells expressing human CFTR
endogenous CFTR channels = endogenous CFTR channels (Homo sapiens, UniProt P13569); settings: 10 μM CFTRinh-172; primary cultured human conjunctival epithelial cells
Chain of endogenous CFTR channels (P13569 whole entry): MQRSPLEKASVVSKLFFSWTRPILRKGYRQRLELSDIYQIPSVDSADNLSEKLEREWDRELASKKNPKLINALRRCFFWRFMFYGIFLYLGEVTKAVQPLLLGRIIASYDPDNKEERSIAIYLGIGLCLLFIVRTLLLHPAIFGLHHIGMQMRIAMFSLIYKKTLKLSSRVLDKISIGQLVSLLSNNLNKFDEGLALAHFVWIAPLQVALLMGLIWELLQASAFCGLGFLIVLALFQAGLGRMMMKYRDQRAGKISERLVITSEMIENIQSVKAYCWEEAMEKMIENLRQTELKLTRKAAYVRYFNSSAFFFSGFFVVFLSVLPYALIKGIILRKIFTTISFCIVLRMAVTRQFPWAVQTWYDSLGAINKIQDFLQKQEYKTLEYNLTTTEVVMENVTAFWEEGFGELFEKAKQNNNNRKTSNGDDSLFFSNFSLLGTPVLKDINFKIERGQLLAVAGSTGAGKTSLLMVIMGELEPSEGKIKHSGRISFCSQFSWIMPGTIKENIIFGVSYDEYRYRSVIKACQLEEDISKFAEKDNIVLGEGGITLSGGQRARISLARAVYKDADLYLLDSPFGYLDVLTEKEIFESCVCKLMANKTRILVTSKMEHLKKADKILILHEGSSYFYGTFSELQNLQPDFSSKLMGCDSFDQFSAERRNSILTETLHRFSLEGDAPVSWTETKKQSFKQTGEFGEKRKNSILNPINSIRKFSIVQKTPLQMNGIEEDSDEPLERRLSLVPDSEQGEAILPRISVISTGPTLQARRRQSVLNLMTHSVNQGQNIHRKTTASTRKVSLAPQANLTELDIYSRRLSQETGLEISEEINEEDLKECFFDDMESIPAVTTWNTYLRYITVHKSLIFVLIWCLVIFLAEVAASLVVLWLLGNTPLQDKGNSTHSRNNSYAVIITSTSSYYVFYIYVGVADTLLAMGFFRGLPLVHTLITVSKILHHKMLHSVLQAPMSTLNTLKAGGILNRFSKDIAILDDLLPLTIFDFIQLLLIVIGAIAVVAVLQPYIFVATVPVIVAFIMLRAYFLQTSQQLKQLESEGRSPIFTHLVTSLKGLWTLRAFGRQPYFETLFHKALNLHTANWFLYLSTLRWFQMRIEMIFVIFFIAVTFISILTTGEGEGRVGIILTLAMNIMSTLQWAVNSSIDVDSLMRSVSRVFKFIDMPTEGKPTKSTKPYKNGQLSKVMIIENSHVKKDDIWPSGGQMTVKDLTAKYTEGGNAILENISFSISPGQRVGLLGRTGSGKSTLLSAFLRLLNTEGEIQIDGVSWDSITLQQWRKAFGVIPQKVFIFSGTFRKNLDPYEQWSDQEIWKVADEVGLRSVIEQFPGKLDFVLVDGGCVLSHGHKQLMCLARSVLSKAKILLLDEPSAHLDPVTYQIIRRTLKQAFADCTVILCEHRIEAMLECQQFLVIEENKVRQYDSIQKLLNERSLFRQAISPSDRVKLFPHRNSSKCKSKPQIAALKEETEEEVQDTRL

Chain of human wild-type CFTR (P13569 whole entry): as above
T2 sequence (P13569 whole entry): as above

SMILES: COC(=O)c1ccc(CNC(=O)c2cc3nccc(-c4ccc(OC)c(OC)c4)n3n2)cc1 [5g, Methyl 4-((7-(3,4-dimethoxyphenyl)pyrazolo[1,5-a]pyrimidine-2-carboxamido)methyl)benzoate]
fold less potent than 5d (human wild-type CFTR; YFP EC50 vs 5d): 34 fold

SMILES: COc1ccc(-c2ccnc3cc(C(=O)Nc4ccc(OCCN5CCOCC5)cc4)nn23)cc1OC [5e, 7-(3,4-Dimethoxyphenyl)-N-(4-(2-morpholinoethoxy)phenyl)pyrazolo[1,5-a]pyrimidine-2-carboxamide]
Solubility [1]: completely insoluble

SMILES: O=c1ccn([C@@H]2O[C@H](COP(=O)(O)OP(=O)(O)OP(=O)(O)OP(=O)(O)OC[C@H]3O[C@@H](n4ccc(=O)[nH]c4=O)[C@H](O)[C@@H]3O)[C@@H](O)[C@H]2O)c(=O)[nH]1 [diquafosol, reference compound]
mRNA expression level of MMP-2 (MMP-2 mRNA): significantly reduced
mRNA expression level of IL-17 (IL-17 mRNA): significantly reduced
mRNA expression level of TNF-α (TNF-α mRNA): significantly reduced
effect on scopolamine-induced tear volume decrease [9]: significant recovery

SMILES: O=C(O)c1ccc(/C=C2\SC(=S)N(c3cccc(C(F)(F)F)c3)C2=O)cc1 [CFTRinh-172]
block of 16d-induced CFTR chloride current (human CFTR [10]): completely blocked
inhibition of 16d-induced CFTR whole-cell currents (human CFTR [11]): completely inhibited
inhibition of 16d-induced CFTR current (short-circuit current) (endogenous CFTR channels): fully inhibited

SMILES: COc1ccc(-c2ccnc3cc(C(=O)Nc4ccc(N5CCOCC5)cc4)nn23)cc1OC [5f, 7-(3,4-Dimethoxyphenyl)-N-(4-morpholinophenyl)pyrazolo[1,5-a]pyrimidine-2-carboxamide]
Solubility [1]: completely insoluble

SMILES: CCOc1ccc(NC(=O)c2cc3nccc(-c4ccc(OC)c(OC)c4)n3n2)cc1 [compound 1, 7-(3,4-Dimethoxyphenyl)-N-(4-ethoxyphenyl)pyrazolo[1,5-a]pyrimidine-2-carboxamide]
time of maximal tear volume after administration ([2]; 2.5 μL eye drops, once): 3 h
effect on tear volume [2]: dose-dependent increase
Solubility [5]: 72 µM (≈ 30.1 µg/mL)
solubility at 90 min ([1]; PBS, pH 7.5): 0.059 µM (≈ 0.0247 µg/mL)

SMILES: COc1ccc(-c2ccnc3cc(C(=O)NCc4ccc(N5CCOCC5)cc4)nn23)cc1OC [5h, 7-(3,4-Dimethoxyphenyl)-N-(4-morpholinobenzyl)pyrazolo[1,5-a]pyrimidine-2-carboxamide]
fold less potent than 5f (human wild-type CFTR; YFP EC50 vs 5f): 101 fold

Further lines, with some results ahead:

Solubility [1]: completely insoluble
SMILES: COc1ccc(-c2ccnc3cc(C(=O)Nc4ccc(C(=O)N5CCOCC5)cc4)nn23)cc1OC [10a, 7-(3,4-Dimethoxyphenyl)-N-(4-(morpholine-4-carbonyl)phenyl)pyrazolo[1,5-a]pyrimidine-2-carboxamide]

solubility/YFP ratio, fold less than 9a ([1]; vs 9a): 2 fold
times more potent than 9a (human wild-type CFTR; YFP EC50 vs 9a): 7 times
SMILES: COc1ccc(-c2ccnc3cc(C(=O)Nc4ccc(C(=O)O)cc4F)nn23)cc1OC [9b, 4-(7-(3,4-Dimethoxyphenyl)pyrazolo[1,5-a]pyrimidine-2-carboxamido)-3-fluorobenzoic Acid]

fold more potent than 16a (human wild-type CFTR; YFP EC50 vs 16a): 7 fold
SMILES: COc1ccc(-c2ccnc3cc(C(=O)N4CCN(C(=O)c5ccccc5)CC4)nn23)cc1OC [16b, (4-Benzoylpiperazin-1-yl)(7-(3,4-dimethoxyphenyl)pyrazolo[1,5-a]pyrimidin-2-yl)methanone]

AUC0-24 ([3]; mean conjunctiva): 4734.0 ng·h/mL or ng·h/g
AUC0-inf ([3]; mean conjunctiva): 13741.0 ng·h/mL or ng·h/g
AUC0-last ([3]; mean conjunctiva): 9819.0 ng·h/mL or ng·h/g
AUC0-24 ([3]; mean cornea): 19409.0 ng·h/mL or ng·h/g
AUC0-inf ([3]; mean cornea): 35802.0 ng·h/mL or ng·h/g
AUC0-last ([3]; mean cornea): 28349.0 ng·h/mL or ng·h/g
period maintained in cornea and conjunctiva ([3]; cornea and conjunctiva): > 8 h
effect on ANO1 channel activity (human ANO1): did not affect
Solubility [5]: > 2000 µM
SMILES: COc1ccc(-c2ccnc3cc(C(=O)N4CCN(C(=O)c5ccccc5)[C@@H](C)C4)nn23)cc1OC [16d, (S)-(4-Benzoyl-3-methylpiperazin-1-yl)(7-(3,4-dimethoxyphenyl)pyrazolo[1,5-a]pyrimidin-2-yl)methanone]
Emax (tear volume) [2]: higher than Cact-3
effect on tear volume [2]: dose-dependent increase
mRNA expression level of IL-1β (IL-1β mRNA): significantly decreased
adverse effects during the PK study ([3]; topical ocular administration 0.1 mg/eye): No adverse effects
effect on VRAC channel activity [4]: did not affect
mRNA expression level of MMP-2 (MMP-2 mRNA): significantly decreased
effect on cell viability of CorE [6]: did not affect
mRNA expression level of IL-17 (IL-17 mRNA): significantly decreased
effect on cell viability of ConjE [7]: did not affect
effect on intracellular cAMP level (intracellular cAMP): slightly increased
mRNA expression level of TNF-α (TNF-α mRNA): significantly decreased
effect on corneal erosion [8]: significantly reduced
effect on scopolamine-induced tear volume decrease [9]: significantly and almost completely restored

fold more soluble than Cact-3 [1]: 4017 fold
fold more potent than 11a (human wild-type CFTR; YFP EC50 vs 11a): 13 fold
fold less potent than Cact-3 (human wild-type CFTR): 16 fold
SMILES: COc1ccc(-c2ccnc3cc(C(=O)Nc4ccc(C(=O)N5CCN(C)CC5)cc4)nn23)cc1OC.Cl [11c, 7-(3,4-Dimethoxyphenyl)-N-(4-(4-methylpiperazine-1-carbonyl)phenyl)pyrazolo[1,5-a]pyrimidine-2-carboxamide Hydrochloride]

fold more soluble than Cact-3 [1]: 88 fold
fold less potent than Cact-3 (human wild-type CFTR): 17 fold
SMILES: COc1ccc(-c2ccnc3cc(C(=O)Nc4ccc(C(=O)O)cc4)nn23)cc1OC [9a, 4-(7-(3,4-Dimethoxyphenyl)pyrazolo[1,5-a]pyrimidine-2-carboxamido)benzoic Acid]
